# Test results published in patent US4554100A, “Alkylamides of carboxyalkanoyl peptides and method for preparation thereof” (Spofa, Spojene podniky pro zdravotnickou vyrobu, priority 1981, dated 1985).
# Read-outs that look alike come from different tables or passages of the source. Starred links: 1 amine or outer side, 2 acyl side, 3 side chain; linkers in the order of their positions; H or OH if unused. Residues, ends and D or L forms follow the SMILES beside them. *: point of attachment. Glutaryl = O=C(CCCC(=O)[*:2])[*:1]; NHPhenethyl = c1ccc(CCN*)cc1; Suc = O=C(CCC(=O)[*:2])[*:1]; NHPr = CCCN*
# Key:
# [1] = target: lyophilized human pancreated fluid obtained by cannulation of the pancreatic duct outlet (E2); assay: Inhibition constants (Ki) with human pancreatic fluid elastase and chromogenic substrates; format: biochemical
# From the text: (§1) The earlier work also led to the surprising discovery that the carboxy group in the N-terminal part of the inhibitor as compared with the hydrophobic residue, such as an acetyl, substantially enhances inhibition capacity in the same manner as it enhances the constants of elastolytic hydrolysis of substrates of this type. It is further known that the properties of an elastolytic inhibitor are dependent upon the length of the peptide chain as well as at the substrate (eur. J. Biochem. 69, 1, 1976), higher inhibition capacity being present with a tripeptide than with a dipeptide. Experiments with vitro inhibition constants (Ki) for the alkylamides of 3-carboxypropionyl and 4-carboxybutyryl di and tripeptides were determined using pancreatic elastase and chromogenic substrates of p-nitroanilides of succinyl or glutaryl tetraalanines, the results of which are set forth in Table 1, below. Inhibition constant of the inhibitors described herein were also determined using human elastase, that is, human duodenal elastase after stimulation with cholecystokinine (E1) or lyophilized human pancreated fluid obtained by cannulation of the pancreatic duct outlet (E2), and they were then compared with swine's pancreatic elastase (E3), the results of which are set forth in Table 2, below.
# [2] = target: swine's pancreatic elastase (E3) (Sus scrofa, UniProt P00772); assay: Inhibition constants (Ki) with pancreatic elastase and chromogenic p-nitroanilide substrates; format: biochemical
# From the text: as §1
# [3] = target: human duodenal elastase after stimulation with cholecystokinine (E1); assay: Inhibition constants (Ki) with human duodenal elastase and chromogenic substrates; format: biochemical
# From the text: as §1
# [4] = Experimental pancreatitis in rats induced by sodium desoxycholate, serum amylase; format: in vivo; details: simultaneous application of 20 mg intraperitoneally
# [5] = Table 2, substrate Glt-(Ala)4-NAn, read-out: Ki, Glt-(Ala)4-NAn, E2
# [6] = Table 2, substrate Suc-(Ala)4-NAn, read-out: Ki, Suc-(Ala)4-NAn, E2
# [7] = Table 1, pancreatic elastase, substrate Glt-(Ala)4-NAn, read-out: Ki, substrate Glt-(Ala)4-NAn
# [8] = Table 1, pancreatic elastase, substrate Suc-(Ala)4-NAn, read-out: Ki, substrate Suc-(Ala)4-NAn
# [9] = Table 2, substrate Glt-(Ala)4-NAn, read-out: Ki, Glt-(Ala)4-NAn, E1
# [10] = Table 2, substrate Suc-(Ala)4-NAn, read-out: Ki, Suc-(Ala)4-NAn, E1
# swine's pancreatic elastase (E3), sequence (P00772 27-266): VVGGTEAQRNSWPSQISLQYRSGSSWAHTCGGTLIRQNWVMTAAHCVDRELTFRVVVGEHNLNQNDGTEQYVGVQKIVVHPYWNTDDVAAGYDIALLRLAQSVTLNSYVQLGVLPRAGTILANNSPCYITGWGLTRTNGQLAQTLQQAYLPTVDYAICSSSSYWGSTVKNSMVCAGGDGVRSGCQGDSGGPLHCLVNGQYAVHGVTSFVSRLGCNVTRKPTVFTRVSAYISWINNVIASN
Compound,"Ki [1, 5]","Ki [1, 6]","Ki [2, 7]","Ki [2, 8]","Ki [3, 9]","Ki [3, 10]","Ki ([2]; Table 2, swine's pancreatic elastase (E3), substrate Glt-(Ala)4-NAn, read-out: Ki, Glt-(Ala)4-NAn, E3)","Ki ([2]; Table 2, swine's pancreatic elastase (E3), substrate Suc-(Ala)4-NAn, read-out: Ki, Suc-(Ala)4-NAn, E3)",level of serum amylase [4]
CCNC(=O)[C@H](C)NC(=O)[C@H](C)NC(=O)CCCC(=O)O [Glt--(Ala)2 --NH--Et] (Glutaryl-Ala-Ala-NHEt),,,109 µM,68.1 µM,,,,,
"CCNC(=O)[C@H](C)NC(=O)[C@H](C)NC(=O)[C@H](C)NC(=O)CCCC(=O)O [Glt--(Ala)3 --NH--Et, 4-Carboxybutyrylalanyl-alanyl Alanine Ethylamide]",19 µM,7.4 µM,8.4 µM,8.8 µM,19 µM,15 µM,,,lower level of serum amylase
"CCCNC(=O)[C@H](C)NC(=O)[C@H](C)NC(=O)[C@H](C)NC(=O)CCCC(=O)O [Glt--(Ala)3 --NH--Pr, 4-Carboxybutyrylalanyl-alanyl Alanine Propylamide]",4.5 µM,3.8 µM,2.5 µM,2.5 µM,7.2 µM,11 µM,,,
"CCNC(=O)[C@@H]1CCCN1C(=O)[C@H](C)NC(=O)[C@H](C)NC(=O)CCCC(=O)O [Glt--Ala--Ala--Pro--NH--Et, 4-Carboxybutyrylalanyl-alanyl Proline Ethylamide] (Glutaryl-Ala-Ala-Pro-NHEt)",13.8 µM,2.9 µM,2.7 µM,1.6 µM,12 µM,10 µM,,,lower level of serum amylase
"CCCNC(=O)[C@@H]1CCCN1C(=O)[C@H](C)NC(=O)[C@H](C)NC(=O)CCCC(=O)O [Glt-Ala-Ala-Pro-Nh-Pr, 4-Carboxybutyrylalanyl-alanyl Proline Propylamide] (Glutaryl-Ala-Ala-Pro-NHPr)",,,,,,,,,lower level of serum amylase
"CCNC(=O)[C@H](C)NC(=O)[C@H](C)NC(=O)[C@H](C)NC(=O)C=CC(=O)O [Mal--(Ala)3 --NH--Et, 3-Carboxyacryolylalanyl-alanyl Alanine Ethylamide]",117 µM,69 µM,30 µM,35 µM,73 µM,87 µM,30 µM,,
"C[C@H](NC(=O)CCC(=O)O)C(=O)N[C@@H](C)C(=O)NCCc1ccccc1 [Suc--(Ala)2 --NH--EtPh, 3-Carboxypropionylalanyl Alanine Phenylethylamide] (Suc-Ala-Ala-NHPhenethyl)",,,666 µM,1460 µM,,,,,
"CC(C)CNC(=O)[C@H](C)NC(=O)[C@H](C)NC(=O)[C@H](C)NC(=O)CCC(=O)O [Suc--(Ala)3 --NH--iBu, 3-Carboxypropionylalanyl-alanyl Alanine Isobutylamide]",,,1470 µM,816 µM,,,,,

# Continued, in another order:
"Ki [1, 5]","Ki [1, 6]","Ki [2, 7]","Ki [2, 8]","Ki [3, 9]","Ki [3, 10]","Ki ([2]; Table 2, swine's pancreatic elastase (E3), substrate Glt-(Ala)4-NAn, read-out: Ki, Glt-(Ala)4-NAn, E3)","Ki ([2]; Table 2, swine's pancreatic elastase (E3), substrate Suc-(Ala)4-NAn, read-out: Ki, Suc-(Ala)4-NAn, E3)",Compound,level of serum amylase [4]
117 µM,69 µM,46 µM,28 µM,123 µM,238 µM,,,"CCNC(=O)[C@H](C)NC(=O)[C@H](C)NC(=O)[C@H](C)NC(C)=O [Ac--(Ala)3 --NH--Et, reference compound]",
,,320 µM,280 µM,,,,,CNC(=O)[C@H](C)NC(=O)[C@H](C)NC(=O)[C@H](C)NC(=O)CCCC(=O)O [Glt--(Ala)3 --NH--Me],
,,794 µM,668 µM,,,,,"CC(C)CNC(=O)[C@H](C)NC(=O)[C@H](C)NC(=O)[C@H](C)NC(=O)CCCC(=O)O [Glt--(Ala)3 --NH--iBu, 4-Carboxybutyrylalanyl-alanyl Alanine Isobutylamide]",
47 µM,29 µM,29 µM,20 µM,89 µM,76 µM,,20 µM,"CCNC(=O)[C@H](C)NC(=O)[C@H](C)NC(=O)[C@H](C)NC(=O)CCC(=O)O [Suc--(Ala)3 --NH--Et, 3-Carboxypropionylalanyl-alanyl Alanine Ethylamide]",
,,680 µM,510 µM,,,,,CNC(=O)[C@H](C)NC(=O)[C@H](C)NC(=O)[C@H](C)NC(=O)CCC(=O)O [Suc--(Ala)3 --NH--Me],
14 µM,13 µM,4.5 µM,6.8 µM,21 µM,12 µM,,,"CCCNC(=O)[C@H](C)NC(=O)[C@H](C)NC(=O)[C@H](C)NC(=O)CCC(=O)O [Suc--(Ala)3 --NH--Pr, 3-Carboxypropionylalanyl-alanyl Alanine Propylamide]",
,,166 µM,95.2 µM,,,,,CCNC(=O)[C@H](C)NC(=O)[C@H](C)NC(=O)CCC(=O)O [Suc--(ala)2 --NH--Et] (Suc-Ala-Ala-NHEt),
17 µM,23 µM,4.7 µM,2.5 µM,19 µM,14 µM,,,"CCNC(=O)[C@@H]1CCCN1C(=O)[C@H](C)NC(=O)[C@H](C)NC(=O)CCC(=O)O [Suc--Ala--Ala--Pro--NH--Et, 3-Carboxypropionylalanyl-alanyl Proline Ethylamide] (Suc-Ala-Ala-Pro-NHEt)",
,,80 µM,111 µM,,,,,"CCNC(=O)[C@@H]1CCCN1C(=O)[C@H](C)NC(=O)CCC(=O)O [Suc--Ala--Pro--NH--Et, 3-Carboxypropionylalanyl Proline Ethylamide] (Suc-Ala-Pro-NHEt)",
,,5750 µM,2040 µM,,,,,CC(C)CNC(=O)[C@@H]1CCCN1C(=O)[C@H](C)NC(=O)CCC(=O)O [Suc--Ala--Pro--NH--iBu],
